Source: patent US7767659B2, “Synthesis of naturally occurring ecteinascidins and related compounds” (Pharma Mar, S.A., priority 2002, dated 2010)

Tests used:
K-562 = assay: Inhibition of cells growth by colorimetric assay (SRB); settings: Homo sapiens, K562, 48 h; for GI50: read-out: K562 GI50; for CC50: read-out: K562 LC50; for IC (TGI): read-out: K562 TGI
Summary of the method: (§1)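 Colorimetric SRB read (490 nm) on triplicate wells after 48 h at 37 °C, 5% CO2. Dose range 10 to 10^−8 μg/ml; 5×10^3 cells/well pre-attached 18 h.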

HeLa-APL = assay: as above; settings: Homo sapiens, 48 h; for GI50: read-out: HELA-APL GI50; for CC50: read-out: HELA-APL LC50
Summary of the method: as §1

SK-MEL-28 = assay: as above; settings: Homo sapiens, SK-MEL-28, 48 h; for GI50: read-out: MEL-28 GI50; for CC50: read-out: MEL-28 LC50; for IC (TGI): read-out: MEL-28 TGI
Summary of the method: as §1

DU-145 = assay: as above; settings: Homo sapiens, DU-145, 48 h; for GI50: read-out: DU145 GI50; for CC50: read-out: DU145 LC50; for IC (TGI): read-out: DU145 TGI
Summary of the method: as §1

IGROV-1 = assay: as above; settings: Homo sapiens, IGROV-1, 48 h; for GI50: read-out: IGROV GI50; for CC50: read-out: IGROV LC50; for IC (TGI): read-out: IGROV TGI
Summary of the method: as §1

SK-BR-3 = assay: as above; settings: Homo sapiens, SK-BR-3, 48 h; for GI50: read-out: SK-BR3 GI50; for CC50: read-out: SK-BR3 LC50; for IC (TGI): read-out: SK-BR3 TGI
Summary of the method: as §1

PANC-1 = assay: as above; settings: Homo sapiens, PANC-1, 48 h; for GI50: read-out: PANC-1 GI50; for CC50: read-out: PANC-1 LC50; for IC (TGI): read-out: PANC-1 TGI
Summary of the method: as §1

LNCaP = assay: as above; settings: Homo sapiens, LNCaP, 48 h; for GI50: read-out: LNCAP GI50; for CC50: read-out: LNCAP LC50; for IC (TGI): read-out: LNCAP TGI
Summary of the method: as §1

IGROV-ET = assay: as above; settings: Homo sapiens, 48 h; for GI50: read-out: IGROV-ET GI50; for CC50: read-out: IGROV-ET LC50; for IC (TGI): read-out: IGROV-ET TGI
Summary of the method: as §1

LoVo-Dox = assay: as above; settings: Homo sapiens, 48 h; for GI50: read-out: LOVO-DOX GI50; for CC50: read-out: LOVO-DOX LC50; for IC (TGI): read-out: LOVO-DOX TGI
Summary of the method: as §1

HeLa = assay: as above; settings: Homo sapiens, HeLa, 48 h; for GI50: read-out: HELA GI50; for CC50: read-out: HELA LC50; for IC (TGI): read-out: HELA TGI
Summary of the method: as §1

LoVo = assay: cells; settings: Homo sapiens, LoVo, 48 h; for GI50: read-out: LOVO GI50; for CC50: read-out: LOVO LC50; for IC (TGI): read-out: LOVO TGI
Summary of the method: as §1

A-549 = assay: cells; settings: Homo sapiens, A549, 48 h; for GI50: read-out: A549 GI50; for CC50: read-out: A549 LC50; for IC (TGI): read-out: A549 TGI
Summary of the method: as §1

HT-29 = assay: cells; settings: Homo sapiens, HT-29, 48 h; for GI50: read-out: HT29 GI50; for CC50: read-out: HT29 LC50; for IC (TGI): read-out: HT29 TGI
Summary of the method: as §1

Compound C=CCN1[C@@H]2c3c(cc(C)c(OC)c3O)C[C@H]1[C@H](C#N)N1C2[C@@H]2SC[C@]3(NCCc4cc(O)c(OC)cc43)C(=O)OC[C@H]1c1c3c(c(C)c(OC(=O)/C=C/c4ccccc4)c12)OCO3 (some centres unmarked) [compound 49] has a GI50 (K-562) of 0.0377 µM, a CC50 (K-562) of 5.1 µM and an IC (TGI) (K-562) of 0.311 µM. The GI50 (HeLa-APL) was 0.182 µM, the CC50 (HeLa-APL) was 0.701 µM and the IC (TGI) (HeLa-APL; read-out: HELA-APL TGI) was 0.357 µM. It also gave a GI50 (SK-MEL-28) of 0.181 µM, a CC50 (SK-MEL-28) of 0.701 µM and an IC (TGI) (SK-MEL-28) of 0.356 µM. For the same compound, the GI50 (DU-145) was 0.107 µM, the CC50 (DU-145) was 11.3 µM and the IC (TGI) (DU-145) was 1.25 µM. It also gave a GI50 (IGROV-1) of 0.165 µM, a CC50 (IGROV-1) of 1.13 µM and an IC (TGI) (IGROV-1) of 0.432 µM. For the same compound, the GI50 (SK-BR-3) was 0.0496 µM, the CC50 (SK-BR-3) was 11.3 µM and the IC (TGI) (SK-BR-3) was 1.86 µM. For the same compound, the GI50 (PANC-1) was 0.179 µM, the CC50 (PANC-1) was 3.92 µM and the IC (TGI) (PANC-1) was 0.564 µM. The GI50 (LNCaP) was 0.0405 µM, the CC50 (LNCaP) was 0.442 µM and the IC (TGI) (LNCaP) was 0.175 µM. It also gave a GI50 (IGROV-ET) of 0.28 µM, a CC50 (IGROV-ET) of 11.3 µM and an IC (TGI) (IGROV-ET) of 0.616 µM. It also gave a GI50 (LoVo-Dox) of 0.672 µM, a CC50 (LoVo-Dox) of 11.3 µM and an IC (TGI) (LoVo-Dox) of 11.3 µM. The GI50 (HeLa) was 0.189 µM, the CC50 (HeLa) was 0.929 µM and the IC (TGI) (HeLa) was 0.418 µM. For the same compound, the GI50 (LoVo) was 0.25 µM, the CC50 (LoVo) was 0.89 µM and the IC (TGI) (LoVo) was 0.471 µM. The GI50 (A-549) was 0.184 µM, the CC50 (A-549) was 1.01 µM and the IC (TGI) (A-549) was 0.431 µM. The GI50 (HT-29) was 0.194 µM, the CC50 (HT-29) was 11.3 µM and the IC (TGI) (HT-29) was 0.588 µM.

Compound C=CCN1[C@@H]2c3c(cc(C)c(OC)c3O)C[C@H]1[C@H](C#N)N1C2[C@@H]2SC[C@]3(NCCc4cc(O)c(OC)cc43)C(=O)OC[C@H]1c1c3c(c(C)c(OC(=O)CCCCCCC)c12)OCO3 (some centres unmarked) [compound 50] has a GI50 (K-562) of 0.891 µM, a CC50 (K-562) of 11.3 µM and an IC (TGI) (K-562) of 11.3 µM. For the same compound, the GI50 (HeLa-APL) was 3.11 µM, the CC50 (HeLa-APL) was 11.3 µM and the GI50 (SK-MEL-28) was 2.53 µM. The CC50 (SK-MEL-28) was 11.3 µM, the IC (TGI) (SK-MEL-28) was 8.36 µM and the GI50 (DU-145) was 1.8 µM. It also gave a CC50 (DU-145) of 1130 µM, an IC (TGI) (DU-145) of 918 µM and a GI50 (IGROV-1) of 2.42 µM. The CC50 (IGROV-1) was 1130 µM, the IC (TGI) (IGROV-1) was 11.3 µM and the GI50 (SK-BR-3) was 13.1 µM. It also gave a CC50 (SK-BR-3) of 11.3 µM, an IC (TGI) (SK-BR-3) of 11.3 µM and a GI50 (PANC-1) of 2.45 µM. It also gave a CC50 (PANC-1) of 11.3 µM, an IC (TGI) (PANC-1) of 11.3 µM and a GI50 (LNCaP) of 0.948 µM. It also gave a CC50 (LNCaP) of 11.3 µM, an IC (TGI) (LNCaP) of 3.68 µM and a GI50 (IGROV-ET) of 3.29 µM. The CC50 (IGROV-ET) was 11.3 µM, the IC (TGI) (IGROV-ET) was 11.3 µM and the GI50 (LoVo-Dox) was 10.1 µM. The CC50 (LoVo-Dox) was 11.3 µM, the IC (TGI) (LoVo-Dox) was 11.3 µM and the GI50 (HeLa) was 3.75 µM. It also gave a CC50 (HeLa) of 11.3 µM, an IC (TGI) (HeLa) of 11.3 µM and a GI50 (LoVo) of 4.94 µM. It also gave a CC50 (LoVo) of 11.3 µM, an IC (TGI) (LoVo) of 11.3 µM and a GI50 (A-549) of 3.76 µM. It also gave a CC50 (A-549) of 11.3 µM, an IC (TGI) (A-549) of 11.3 µM and a GI50 (HT-29) of 8.9 µM. The CC50 (HT-29) was 11.3 µM and the IC (TGI) (HT-29) was 11.3 µM.
